Test systems include PC-3 prostate; RXF 393 renal; HS 578T breast; HCT-15 colon; SW-620 colon; M14 melanoma; IGROV1 ovarian; MCF7 breast; T-47D breast; SNB-75 CNS.
What all share (test): DTP human tumour cell line panel, 48 h

The values that follow come from PubChem BioAssay (NCI).

The structures appear in SMILES notation. Values joined by “and” are separate entries in the source; they are usually repeats but may differ in a detail not shown here. Equal entries are not always repeated.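 Values below derive from 48-hour exposures of cells grown in 96-well plates, with endpoints linearly interpolated between the two concentrations bracketing the appropriate inhibition level. GI50 marks 50% less growth. At the TGI there is no net growth.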

By GI50 is commonly meant the concentration giving 50% growth inhibition. By TGI is commonly meant the concentration at which net growth stops. A low value points to more potent growth arrest. With `CC(C)CNc1nc(N=[N+]=[N-])nc(NCC(C)C)n1`, the GI50 in the assay with PC-3 prostate, with RXF 393 renal, in the assay on HS 578T breast, in the assay on HCT-15 colon, with SW-620 colon and with M14 melanoma was above 10000 nM in each case. In addition, the GI50 in the assay with IGROV1 ovarian, in the assay on MCF7 breast, in the assay on T-47D breast and in the assay on SNB-75 CNS was above 10000 nM in each case. Also, the TGI with PC-3 prostate is above 10 µM; in the assay on RXF 393 renal, above 10000 nM; in the assay on HS 578T breast, above 10 µM; in the assay on HCT-15 colon, above 10 µM; in the assay on SW-620 colon, above 10 µM; with M14 melanoma it was above 10000 nM. Moreover, the total growth inhibition concentration (TGI) in the assay with IGROV1 ovarian was above 10 µM; with MCF7 breast, above 10000 nM; with T-47D breast, above 10 µM; with SNB-75 CNS, above 10 µM.
Consider `Brc1ccc(Br)nn1`, for which the GI50 is 4410 nM in the assay with PC-3 prostate; 1320 nM with RXF 393 renal; 1750 nM with HS 578T breast; 1740 nM in the assay on HCT-15 colon; 1660 nM with SW-620 colon; 1390 nM with M14 melanoma. The GI50 is 2000 nM in the assay with IGROV1 ovarian, 1210 nM in the assay with MCF7 breast, 1360 nM with T-47D breast and 1970 nM in the assay on SNB-75 CNS. In addition, the TGI in the assay with PC-3 prostate was determined as 22 µM; in the assay with RXF 393 renal it was 2630 nM; in the assay with HS 578T breast, 28.1 µM; in the assay on HCT-15 colon, 3.66 µM; in the assay with SW-620 colon, 6.54 µM; with M14 melanoma it was 2820 nM. For the same molecule, the concentration for total growth inhibition (TGI) turned out to be 4.92 µM with IGROV1 ovarian, 2640 nM in the assay with MCF7 breast, 3.77 µM in the assay with T-47D breast and 8.41 µM with SNB-75 CNS.
On to `Nc1cccc2nsnc12`, for which the concentration for total growth inhibition (TGI) was above 100 µM in the assay on PC-3 prostate; above 100000 nM in the assay with RXF 393 renal; above 100 µM in the assay with HS 578T breast; above 100 µM in the assay on HCT-15 colon; above 100 µM in the assay with SW-620 colon; above 100000 nM in the assay on M14 melanoma. The TGI in the assay on IGROV1 ovarian was above 100 µM; with MCF7 breast, above 100000 nM; in the assay with T-47D breast it was above 100 µM; with SNB-75 CNS, above 100 µM.
As for `C=C=[CH][Sn]([c]1ccccc1)([c]1ccccc1)[c]1ccccc1`, the GI50 with PC-3 prostate is 1460 nM; in the assay with RXF 393 renal it was 1070 nM; in the assay on HS 578T breast, 2060 nM; in the assay with HCT-15 colon, 1400 nM; in the assay on SW-620 colon it was 821 nM; with M14 melanoma, 1810 nM. The GI50 is 1630 nM in the assay with IGROV1 ovarian, 1410 nM with MCF7 breast, 1290 nM with T-47D breast and 1310 nM with SNB-75 CNS. The TGI in the assay with PC-3 prostate came out at 3.68 µM; with RXF 393 renal, 2280 nM; in the assay on HS 578T breast it was 7.37 µM; with HCT-15 colon, 2.9 µM; in the assay on SW-620 colon, 2.17 µM; in the assay on M14 melanoma, 3470 nM. Further, the TGI with IGROV1 ovarian came out at 4.47 µM; in the assay on MCF7 breast it was 2810 nM; with T-47D breast, 2.82 µM; in the assay with SNB-75 CNS it was 4.72 µM.
Consider `CC[C@@]1(OC(=O)CN)C(=O)OCc2c1cc1n(c2=O)Cc2cc3c(N)c4c(cc3nc2-1)OCO4`, for which the GI50 in the assay with PC-3 prostate is 36.1 nM and 32.2 nM; with RXF 393 renal, 4.66 nM; in the assay on HS 578T breast, 232 nM; in the assay with HCT-15 colon, 40.9 nM and 147 nM; with SW-620 colon, 2.43 nM; in the assay with M14 melanoma it was below 0.1 nM. Moreover, the GI50 was 18 nM with IGROV1 ovarian, below 0.1 nM with MCF7 breast and 0.442 nM with SNB-75 CNS. The total growth inhibition concentration (TGI) was above 100 µM in the assay on PC-3 prostate; 158 nM in the assay on RXF 393 renal; above 100 µM in the assay on HCT-15 colon; above 100 µM in the assay with SW-620 colon; 13.9 nM in the assay on M14 melanoma; 0.342 µM with IGROV1 ovarian. In addition, the figures for the concentration for total growth inhibition (TGI) with T-47D breast and with SNB-75 CNS were above 100 µM and 0.824 µM, respectively.
On to `N#CSCC(=O)c1ccc(Cl)cc1`, for which the GI50 was 3950 nM with PC-3 prostate; 2050 nM in the assay on RXF 393 renal; 2900 nM with HS 578T breast; 2850 nM with HCT-15 colon; 2130 nM in the assay with SW-620 colon; 3400 nM in the assay with M14 melanoma. In addition, the GI50 in the assay with IGROV1 ovarian is 1330 nM; with MCF7 breast, 2530 nM; in the assay on T-47D breast, 7840 nM; in the assay with SNB-75 CNS, 2750 nM. In addition, the TGI in the assay with PC-3 prostate worked out at 57.5 µM; in the assay with RXF 393 renal, 5180 nM; in the assay on HS 578T breast, 16.3 µM; with HCT-15 colon, 32.2 µM; in the assay with SW-620 colon, 12.2 µM; in the assay with M14 melanoma, 15100 nM. The TGI in the assay with IGROV1 ovarian turned out to be 6.6 µM; in the assay on MCF7 breast, 13600 nM; with T-47D breast, 67.9 µM; in the assay with SNB-75 CNS it was 22.2 µM.
As to `CN1CCN(c2ccc3nc4c(nc3c2C(F)(F)F)C(=O)c2ncccc2C4=O)CC1`, the GI50 is 1440 nM with PC-3 prostate; 1460 nM in the assay on RXF 393 renal; 1910 nM with HS 578T breast; 1190 nM in the assay with HCT-15 colon; 1420 nM in the assay with SW-620 colon; 1320 nM with M14 melanoma. Besides, the GI50 was 1410 nM in the assay on IGROV1 ovarian, 316 nM in the assay on MCF7 breast, 1960 nM with T-47D breast and 1110 nM in the assay with SNB-75 CNS. In addition, the total growth inhibition concentration (TGI) with PC-3 prostate came out at 11.5 µM; in the assay on RXF 393 renal it was 3150 nM; in the assay on HS 578T breast, 5.38 µM; with HCT-15 colon, 3.11 µM; with SW-620 colon it was 3.52 µM; with M14 melanoma it was 2860 nM. For the same molecule, the concentration for total growth inhibition (TGI) was determined as 3.07 µM in the assay on IGROV1 ovarian, 2090 nM in the assay on MCF7 breast, 4.62 µM in the assay on T-47D breast and 2.32 µM in the assay with SNB-75 CNS.
On to `COc1ccc(-c2cncn2-c2cc(OC)c(OC)c(OC)c2)cc1F`, for which the GI50 in the assay with PC-3 prostate is 17.9 nM; in the assay with RXF 393 renal, below 27.8 nM; in the assay on HS 578T breast, 332 nM; in the assay with HCT-15 colon it was below 10 nM; in the assay with SW-620 colon, below 17.7 nM; in the assay with M14 melanoma it was below 10 nM. Further, the GI50 with IGROV1 ovarian is below 21.2 nM; with MCF7 breast, below 10 nM; in the assay with T-47D breast it was below 10 nM; with SNB-75 CNS it was below 11.9 nM. For the same molecule, the TGI in the assay on PC-3 prostate was above 100 µM; in the assay with HS 578T breast, above 100 µM; in the assay on HCT-15 colon, above 100 µM; in the assay with SW-620 colon, above 100 µM; with M14 melanoma, 141 nM; in the assay with IGROV1 ovarian, 19 µM. Moreover, the TGI with MCF7 breast was above 100000 nM; in the assay with T-47D breast it was above 100 µM; in the assay with SNB-75 CNS it was above 100 µM.
